The target in this assay is T1, angiotensin converting enzyme (ACE) (Homo sapiens, UniProt P12821).
T1 construct: purchased Dojindo Laboratories A502
Put plainly: ACE inhibitory activity assay (ACE Kit-WST, A502, Dojindo Laboratories). It counts as biochemical. To be noted: for IC50: 3HB-GGG substrate, absorbance 450 nm, N.D. = ACE inhibitory activity was not detected in the test, read-out: IC50 concerning ACE activity.

T1 sequence (P12821 30-1306, species assumed): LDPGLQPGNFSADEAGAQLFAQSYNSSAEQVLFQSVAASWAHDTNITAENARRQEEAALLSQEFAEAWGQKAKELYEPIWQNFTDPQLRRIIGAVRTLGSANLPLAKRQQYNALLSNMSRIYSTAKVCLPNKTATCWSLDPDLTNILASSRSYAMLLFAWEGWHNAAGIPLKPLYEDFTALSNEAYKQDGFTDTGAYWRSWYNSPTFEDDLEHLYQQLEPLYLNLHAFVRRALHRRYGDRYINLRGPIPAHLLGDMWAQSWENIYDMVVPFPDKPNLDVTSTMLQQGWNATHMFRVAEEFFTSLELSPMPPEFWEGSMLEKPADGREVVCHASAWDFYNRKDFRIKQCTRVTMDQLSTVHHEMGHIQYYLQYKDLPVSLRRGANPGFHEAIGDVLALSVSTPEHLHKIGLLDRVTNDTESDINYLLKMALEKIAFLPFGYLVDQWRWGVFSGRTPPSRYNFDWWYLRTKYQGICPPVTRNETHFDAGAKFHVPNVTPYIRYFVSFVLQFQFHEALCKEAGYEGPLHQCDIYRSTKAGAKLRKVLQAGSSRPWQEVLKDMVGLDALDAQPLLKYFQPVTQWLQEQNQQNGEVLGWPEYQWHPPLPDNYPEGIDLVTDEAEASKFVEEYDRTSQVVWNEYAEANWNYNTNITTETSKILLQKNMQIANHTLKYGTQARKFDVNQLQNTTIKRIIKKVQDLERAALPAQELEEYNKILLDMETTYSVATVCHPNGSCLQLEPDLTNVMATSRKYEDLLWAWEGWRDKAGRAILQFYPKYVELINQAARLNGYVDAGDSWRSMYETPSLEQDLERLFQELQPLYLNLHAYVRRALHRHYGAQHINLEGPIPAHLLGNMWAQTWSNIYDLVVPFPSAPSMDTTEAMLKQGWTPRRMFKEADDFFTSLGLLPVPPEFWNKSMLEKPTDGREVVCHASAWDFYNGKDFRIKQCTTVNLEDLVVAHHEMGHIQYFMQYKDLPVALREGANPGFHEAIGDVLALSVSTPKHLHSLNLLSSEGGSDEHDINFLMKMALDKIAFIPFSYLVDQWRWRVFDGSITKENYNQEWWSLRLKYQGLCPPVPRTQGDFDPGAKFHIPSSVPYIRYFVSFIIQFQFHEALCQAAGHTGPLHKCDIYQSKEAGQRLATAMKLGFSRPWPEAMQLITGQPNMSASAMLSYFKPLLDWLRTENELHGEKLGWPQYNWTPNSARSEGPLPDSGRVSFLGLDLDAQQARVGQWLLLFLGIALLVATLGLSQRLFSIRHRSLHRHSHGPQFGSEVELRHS
Excerpt: ACE inhibitory activity can be quantitatively evaluated with the use of, for example, a commercially available kit for ACE inhibitory activity assay. […] For example, ACE inhibitory activity of a target sample (e.g., a compound) can be evaluated with the use of a commercially available kit for ACE inhibitory activity assay (ACE Kit-WST, A502, Dojindo Laboratories) in the manner described below. In principle, such kit enzymatically detects 3-hydroxybutyric acid (3HB) cleaved from 3-hydroxybutyryl-glycyl-glycyl-glycine (3HB-GGG) by ACE activity. In accordance with the instructions of the kit, a sample solution containing a test compound at a given concentration is prepared in a reaction vessel, and a control solution is prepared with the addition of the same volume of water instead of the sample solution in another reaction vessel. An enzyme reaction solution is added to each reaction vessel, and the reaction is then allowed to proceed, respectively. As a blank sample, a solution prepared with the addition of the same volume of water instead of the enzyme solution is subjected to the same treatment. The absorbance (450 nm) of the chromogenic indicator used in the enzymatic method generated together with 3HB cleaved from 3HB-GGG by ACE activity is measured. On the basis of the values measured for the sample, the control sample, and the blank sample, ACE inhibitory activity of each sample is determined using the formula shown below. Alternatively, ACE inhibitory activity of the target sample can be evaluated in the manner described below. A substrate peptide that is a mimic of a C-terminal region of angiotensin I (e.g., hippuryl-histidyl-leucine (HHL)) and a sample are mixed with each other in an appropriate buffer solution. ACE is added to the resulting mixture and an enzymatic reaction is performed under appropriate conditions (e.g., 37° C. and pH 8.3) for a given period of time. After the enzymatic reaction is terminated, a product generated from the substrate peptide (e.g., hippuric acid in the case of HHL) is quantitatively measured via analytical means, such as absorbance measurement, immunoanalysis such as ELISA or RIA, or chromatography analysis such as HPLC or LC-MS. A sample-free control and an ACE-free blank are subjected to the same experiment. On the basis of the values measured for the sample, the control sample, and the blank sample, ACE inhibitory activity of each sample is determined using the formula shown below. […]
In principle, such kit enzymatically detects 3-hydroxybutyric acid (3HB) cleaved from 3-hydroxybutyryl-glycyl-glycyl-glycine (3HB-GGG) by ACE activity. […] The absorbance (450 nm) of the chromogenic indicator used in the enzymatic method generated together with 3HB cleaved from 3HB-GGG by ACE activity was measured.

By IC50 is commonly meant the concentration that inhibits the measured activity by half. As for `N=C(N)NCCC[C@H](NC(=O)C1CSSC1)C(=O)O` [Asparaptine, asparaptine], the concentration for half-maximal inhibition (IC50) was determined as 113 µM. In addition, under “from the dose-response data”, the “concentration at which ACE inhibitory activity is exerted” value was “exceeding 1 μM”.

For the compound `N[C@@H](CCN[C@@H](CCN1CC[C@H]1C(=O)O)C(=O)O)C(=O)O` [Nicotianamine, nicotianamine], the IC50 came out at 18.7 ± 0.54 µM. As to `O=C(O)CCC(=O)N1CCC[C@H]1C(=O)O` [N-Succinyl-L-proline, N-succinyl-L-proline], the IC50 was 14.5 ± 5.3 µM.

The values above are taken from patent US20180273503A1, “NOVEL ANGIOTENSIN CONVERTING ENZYME INHIBITOR” (RIKEN, priority 2015, published 2018).
